BindingDB's records for PubMed 10087012 (Medical College of Georgia, 1999)

What follows are molecules tested against Sigma non-opioid intracellular receptor 1 (Homo sapiens, UniProt Q99720).
Chain of Sigma non-opioid intracellular receptor 1 (Q99720 whole entry): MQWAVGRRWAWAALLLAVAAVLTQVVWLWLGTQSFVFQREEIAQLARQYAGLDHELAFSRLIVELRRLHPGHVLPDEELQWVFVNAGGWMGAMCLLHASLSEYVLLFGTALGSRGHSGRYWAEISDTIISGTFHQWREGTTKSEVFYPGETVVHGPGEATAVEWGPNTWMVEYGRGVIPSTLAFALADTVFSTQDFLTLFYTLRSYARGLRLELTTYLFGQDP

In order of rising Ki:
1. C#CCN(C)CCCOc1ccc(Cl)cc1Cl [US8633208, Clorgyline]  8.7 nM
2. CCN(CC)CCOCCOC(=O)C1(c2ccccc2)CCCC1 [SMR000326757]  10.4 nM
3. O=c1[nH]c2nccn2c2c1ncn2C1CC(O)C(COP(=O)(O)OP(=O)(O)OP(=O)(O)O)O1 (centres undefined) [CAS_85976-54-1]  42 nM
4. COc1ccc2c(c1)C13CCCCC1C(C2)N(C)CC3 (centres undefined) [Levomethorpan]  521 nM
